# Tests used:
# [1] = tested on: methicillin resistant Staphylococcus aureus (MRSA); conditions: certain species of MRSA; earlier application WO03/024437; cited from earlier work
# E. coli = assay: Zones of Inhibition against common chicken bacteria; assay type: cell-based; conditions: Escherichia coli
# [2] = tested on: Enterococcus hirae (University of Brighton isolate); assay: Modified Kelsey-Sykes test; assay type: cell-based; parameters: key: CG = Confluent growth
# Description: Allicin can be used to displace or supplement existing harmful forms of disinfectant/biocide such as chlorine, sodium hypochlorite, ozone and per-acetic acid all of which can have an adverse effect on the environment. UV radiation is also used for disinfection but power and general running costs are high. Laboratory studies have been conducted on our behalf using allicin on aqueous suspensions of bacterial species commonly used as indicators of the effectiveness of water and wastewater disinfection. To this effect, identified isolates from the faecal coliform and streptococcus groups, namely, Escherichia coli (NCTC 8156) and Enterococcus hirae (University of Brighton isolate) were used in all experiments. […]
# Stock suspensions of Escherichia coli (NCTC 8156) and Enterococcus hirae (University of Brighton isolate) were cultivated in Nutrient Broth No. 2 from freeze dried isolates. Prior to each experiment, serial dilutions of the suspensions were enumerated by the spread plate method on Nutrient Agar and subsequent incubation at 37 deg C.
# Initial experimental procedures were based on the methods set out in an established UK protocol (BS 6905: 1987). The Kelsy-Sykes methodology was developed as a guide to the concentrations of disinfectants which may be recommended for use under “dirty” (wastewater/sewage) conditions. It is therefore a suitable means of establishing the effectiveness of a disinfectant against a wastewater containing particulate and dissolved contaminants in addition to micro-organisms.
# Therefore, with regard to wastewater/sewage considerations, the protocol was adapted. Under the revised methodology, a sample was taken from the bacterial suspension/biocide mix after the prescribed contact time and plated out onto solid media so that a colony count could be made (see Tables 1 and 2).
# Staph. Aureus = assay: Zones of Inhibition against common chicken bacteria; assay type: cell-based; conditions: Staphylococcus aureus
# [3] = tested on: E. coli, Listeria, E. faecalis and other bacteria associated with animal diseases; conditions: laboratory tests of earlier application WO03/024437; cited from earlier work
# [4] = tested on: protozoal parasite associated with Leishmaniasis; assay: Confirmatory in vitro test against the Leishmaniasis parasite; assay type: cell-based, Leishmania; conditions: allicin 5.0 gm per litre
# Description: Confirmatory in vitro tests at the University of East London using allicin at a concentration of 5.0 gm per litre has killed the protozoal parasite associated with Leishmaniasis. Taken with extrapolation of the results from the laboratory studies described in PCT/GB2002/004309, we believe that allicin at a concentration of 5000 ppm has efficacy as an antiprotozoal agent.
# [5] = tested on: E. coli and Salmonella growth; assay: Preservation of hamburger meat samples against bacterial growth; assay type: cell-based; conditions: for time bacterial overgrowth prevented: 10 kg hamburger meat
# Description: A range of concentrations of liquid allicin (0 ppm to 500 ppm) was applied to 10 kg samples of hamburger meat to determine how long bacterial growth could be prevented. These tests were compared to the normal use of existing preservatives (including nitrates and phosphates).
# To test for bacterial growth, small samples of meat were cut from the test piece of meat and, using standard methods of analysis, were checked for E. coli and Salmonella growth.
# [6] = allicin conc. 0.9 % (w/v), 10 mins
# [7] = allicin conc. 0.9 % (w/v), 20 mins
# [8] = allicin conc. 0.9 % (w/v), 30 mins
# [9] = allicin conc. 1.08 % (w/v), 10 mins
# [10] = allicin conc. 1.08 % (w/v), 20 mins
# [11] = allicin conc. 1.26 % (w/v), 10 mins
# [12] = allicin conc. 1.26 % (w/v), 20 mins
# [13] = allicin conc. 1.62 % (w/v), 10 mins
# [14] = allicin conc. 1.62 % (w/v), 20 mins
smiles,measurement,setting,value
"C=CCS[S+]([O-])CC=C (stereo not shown) [allicin, Allicin]",susceptibility of MRSA to allicin,[1],exceptionally susceptible
same,zone of inhibition at 166 ppm,E. coli; 166 ppm (1:6 dilution),0 mm
same,zone of inhibition at 1000 ppm,E. coli; 1000 ppm,17 mm
same,Numbers of colony forming units killed,[2]; [6],CG
same,Percentage reduction in colony forming units,[2]; [6],CG
same,Numbers of colony forming units killed,[2]; [7],CG
same,Percentage reduction in colony forming units,[2]; [7],CG
same,Numbers of colony forming units killed,[2]; [8],CG
same,Percentage reduction in colony forming units,[2]; [8],CG
same,Numbers of colony forming units killed,[2]; [9],CG
same,Percentage reduction in colony forming units,[2]; [9],CG
same,Numbers of colony forming units killed,[2]; [10],CG
same,Percentage reduction in colony forming units,[2]; [10],CG
same,Percentage reduction in colony forming units,"[2]; allicin conc. 1.08 % (w/v), 30 mins",77%
same,Numbers of colony forming units killed,[2]; [11],CG
same,Percentage reduction in colony forming units,[2]; [11],CG
same,Numbers of colony forming units killed,[2]; [12],CG
same,Percentage reduction in colony forming units,[2]; [12],CG
same,Percentage reduction in colony forming units,"[2]; allicin conc. 1.26 % (w/v), 30 mins",91%
same,Percentage reduction in colony forming units,"[2]; allicin conc. 1.4 % (w/v), 10 mins",CG
same,Percentage reduction in colony forming units,"[2]; allicin conc. 1.4 % (w/v), 20 mins",CG
same,Percentage reduction in colony forming units,"[2]; allicin conc. 1.4 % (w/v), 30 mins",87%
same,Numbers of colony forming units killed,"[2]; allicin conc. 1.44 % (w/v), 10 mins",CG
same,Numbers of colony forming units killed,"[2]; allicin conc. 1.44 % (w/v), 20 mins",CG
same,Numbers of colony forming units killed,[2]; [13],CG
same,Percentage reduction in colony forming units,[2]; [13],CG
same,Numbers of colony forming units killed,[2]; [14],CG
same,Percentage reduction in colony forming units,[2]; [14],CG
same,Percentage reduction in colony forming units,"[2]; allicin conc. 1.62 % (w/v), 30 mins",89%
same,zone of inhibition at 166 ppm,Staph. Aureus; 166 ppm (1:6 dilution),0 mm
same,zone of inhibition at 1000 ppm,Staph. Aureus; 1000 ppm,32 mm
same,concentration at which allicin can kill the bacteria,[3],up to 500 ppm
same,killing of the protozoal parasite,[4],killed
same,time bacterial overgrowth prevented,[5]; 250 ppm,up to 7 days
same,time bacterial overgrowth prevented,[5]; 375 ppm,up to 10 days
same,time bacterial overgrowth prevented,[5]; 500 ppm,up to 14 days
same,allicin concentration demonstrating prevention of growth of E. coli and Salmonella,"[5]; meat, equivalent to 0.0250% w/v",250 ppm
